In general, DC50 refers to the concentration giving 50% degradation. Low values mean degradation at low concentration, high ones degradation only at high concentration. Usually IC50 stands for the concentration needed to halve the response being measured. A low value points to greater potency in that assay.

The values that follow come from US20230167118A1, “DEGRADATION OF BRUTON'S TYROSINE KINASE (BTK) BY CONJUGATION OF BTK INIDBITORS WITH E3 LIGASE LIGAND AND METHODS OF USE” (BEIGENE, LTD., priority 2020, published 2023).

One experiment addresses T1, BTK (Homo sapiens, UniProt Q06187).
T1 construct: High control=Cell group with added DMSO and without compound, indicating microplate readings without BTK degradation; endogenous in cells; host or cells: TMD-8 cells
The experiment in a line: Cell Degradation: BTK degradation in TMD-8 cells, HTRF assay. Format: cell-based. The settings on record: 6 h treatment, IC50 (DC50) of BTK degradation. The method in brief: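 BTK levels read by HTRF (665 vs 620 nm) in lysates of TMD-8 cells after 6 h compound exposure (eight doses, 6-fold steps, 0.2% DMSO). Percent degradation relative to controls; four-parameter curve fitting gave DC50, with Dmax the top degradation.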

A further experiment has as its system HEK-293 cells. Kind of experiment: HEK-293 Cytotoxicity Assay (CellTiter-Glo). In kind it is cell-based. The settings on record: Homo sapiens, HEK293, 72 h incubation, CellTiter-Glo luminescence. The essentials:
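Four-parameter fit of % inhibition gives IC50, from CellTiter-Glo luminescent viability read-out. Cells exposed for 72 h to an 8-point, 4-fold series at 0.2% DMSO.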
(In ATP-based viability assays light output follows the ATP content of the culture.)

T1 sequence (Q06187 whole entry): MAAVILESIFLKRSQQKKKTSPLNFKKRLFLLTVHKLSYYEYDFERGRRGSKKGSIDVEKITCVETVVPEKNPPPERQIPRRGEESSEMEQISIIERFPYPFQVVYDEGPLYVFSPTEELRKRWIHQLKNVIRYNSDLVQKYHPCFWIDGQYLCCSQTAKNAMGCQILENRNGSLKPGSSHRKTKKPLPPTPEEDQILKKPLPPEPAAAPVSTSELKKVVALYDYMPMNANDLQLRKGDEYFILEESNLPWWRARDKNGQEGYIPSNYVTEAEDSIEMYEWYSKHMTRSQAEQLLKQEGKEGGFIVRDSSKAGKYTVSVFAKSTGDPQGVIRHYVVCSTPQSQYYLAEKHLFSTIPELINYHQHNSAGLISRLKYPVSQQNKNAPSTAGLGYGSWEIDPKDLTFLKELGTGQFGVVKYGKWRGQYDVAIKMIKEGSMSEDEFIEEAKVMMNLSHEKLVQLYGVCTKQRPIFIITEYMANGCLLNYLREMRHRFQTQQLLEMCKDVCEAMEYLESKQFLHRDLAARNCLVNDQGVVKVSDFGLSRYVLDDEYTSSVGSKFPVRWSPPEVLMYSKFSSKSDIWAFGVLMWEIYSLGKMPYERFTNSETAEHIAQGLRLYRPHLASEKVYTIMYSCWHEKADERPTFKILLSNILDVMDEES

In turn, `C[C@@H](NC(=O)c1nc(C(C)(C)C)no1)c1ccc(-c2ncnc3[nH]c(-c4ccc(N5CCN(CC6CCN(c7ccc(N8CCC(=O)NC8=O)cc7)CC6)CC5)cc4)cc23)cc1CO` [Example 74] displayed a DC50 on BTK of 0.4 nM. In the experiment on HEK-293 cells, this molecule registered an IC50 greater than 10000 nM.
On BTK, `Cc1c([C@@H](C)NC(=O)c2nc(C(C)(C)C)no2)ccc(-c2ncnc3[nH]c(-c4ccc(N5CCN(CC6CCN(c7ccc(N8CCC(=O)NC8=O)cc7)CC6)CC5)cc4)cc23)c1F` [Example 78, (R)-3-(tert-butyl)-N-(1-(4-(6-(4-(4-((1-(4-(2,4-dioxotetrahydropyrimidin-1(2H)-yl)phenyl)piperidin-4-yl)methyl)piperazin-1-yl)phenyl)-7H-pyrrolo[2,3-d]pyrimidin-4-yl)-3-fluoro-2-methylphenyl)ethyl)-1,2,4-oxadiazole-5-carboxamide] displayed a DC50 of 0.88 nM. Moreover, the IC50 with HEK-293 cells is greater than 10000 nM.
On the same counts, the results for `Cc1cc(-c2ncnc3[nH]c(-c4ccc(N5CCN(CC6CCN(c7ccc(N8CCC(=O)NC8=O)cc7)CC6)CC5)cc4)cc23)c(F)cc1[C@@H](C)NC(=O)c1nc(C(C)(C)C)no1` [Example 79, (R)-3-(tert-butyl)-N-(1-(4-(6-(4-(4-((1-(4-(2,4-dioxotetrahydropyrimidin-1(2H)-yl)phenyl)piperidin-4-yl)methyl)piperazin-1-yl)phenyl)-7H-pyrrolo[2,3-d]pyrimidin-4-yl)-5-fluoro-2-methylphenyl)ethyl)-1,2,4-oxadiazole-5-carboxamide] are 1.5 nM and greater than 10000 nM.
On to `C[C@@H](NC(=O)c1nc(C(C)(C)C)no1)c1ccc(-c2ncnc3[nH]c(-c4ccc(N5CCN(CC6CCN(c7ccc(N8CCC(=O)NC8=O)cc7)CC6)C[C@@H]5C)nc4)cc23)cc1F` [Example 80, 3-(tert-butyl)-N-((R)-1-(4-(6-(6-((S)-4-((1-(4-(2,4-dioxotetrahydropyrimidin-1(2H)-yl)phenyl)piperidin-4-yl)methyl)-2-methylpiperazin-1-yl)pyridin-3-yl)-7H-pyrrolo[2,3-d]pyrimidin-4-yl)-2-fluorophenyl)ethyl)-1,2,4-oxadiazole-5-carboxamide], for which, at BTK, the DC50 amounted to 4.3 nM. In the experiment on HEK-293 cells, this molecule showed an IC50 greater than 10000 nM.
At BTK, `Cc1cc(-c2ncnc3[nH]c(-c4ccc(N5CCN(CC6CCN(c7ccc(N8CCC(=O)NC8=O)cc7)CC6)CC5)cc4)cc23)ccc1[C@@H](C)NC(=O)c1noc(C2(C)CC2)n1` [Example 90, (R)-N-(1-(4-(6-(4-(4-((1-(4-(2,4-dioxotetrahydropyrimidin-1(2H)-yl)phenyl)piperidin-4-yl)methyl)piperazin-1-yl)phenyl)-7H-pyrrolo[2,3-d]pyrimidin-4-yl)-2-methylphenyl)ethyl)-5-(1-methylcyclopropyl)-1,2,4-oxadiazole-3-carboxamide] gave a DC50 of 1.5 nM. This molecule registered an IC50 in the experiment on HEK-293 cells greater than 10000 nM.
`Cc1cc(-c2ncnc3[nH]c(-c4ccc(N5CCN(CC6CCN(c7ccc(N8CCC(=O)NC8=O)cc7)CC6)CC5)nc4)cc23)ccc1[C@@H](C)NC(=O)c1noc(C(C)(C)C)n1` [Example 104, (R)-5-(tert-butyl)-N-(1-(4-(6-(6-(4-((1-(4-(2,4-dioxotetrahydropyrimidin-1(2H)-yl)phenyl)piperidin-4-yl)methyl)piperazin-1-yl)pyridin-3-yl)-7H-pyrrolo[2,3-d]pyrimidin-4-yl)-2-methylphenyl)ethyl)-1,2,4-oxadiazole-3-carboxamide] yielded a DC50 at BTK of 0.6 nM. Moreover, the IC50 in the experiment with HEK-293 cells is greater than 10000 nM.
On to `Cc1cc(-c2ncnc3[nH]c(-c4ccc(N5CCN(CC6CCN(c7ccc(N8CCC(=O)NC8=O)cc7)CC6)C[C@H]5C)nc4)cc23)ccc1[C@@H](C)NC(=O)c1nc(C(C)(C)C)no1` [Example 105, 3-(tert-butyl)-N-((R)-1-(4-(6-(6-((R)-4-((1-(4-(2,4-dioxotetrahydropyrimidin-1(2H)-yl)phenyl)piperidin-4-yl)methyl)-2-methylpiperazin-1-yl)pyridin-3-yl)-7H-pyrrolo[2,3-d]pyrimidin-4-yl)-2-methylphenyl)ethyl)-1,2,4-oxadiazole-5-carboxamide], for which the DC50 on BTK stood at 3 nM. In addition, the IC50 in the experiment on HEK-293 cells was greater than 10000 nM.
On to `Cc1cc(-c2ncnc3[nH]c(-c4ccc(N5CCN(CC6CCN(c7ccc(N8CCC(=O)NC8=O)cc7)CC6)C[C@@H]5C)nc4)cc23)ccc1[C@@H](C)NC(=O)c1nc(C(C)(C)C)no1` [Example 106, 3-(tert-butyl)-N-((R)-1-(4-(6-(6-((S)-4-((1-(4-(2,4-dioxotetrahydropyrimidin-1(2H)-yl)phenyl)piperidin-4-yl)methyl)-2-methylpiperazin-1-yl)pyridin-3-yl)-7H-pyrrolo[2,3-d]pyrimidin-4-yl)-2-methylphenyl)ethyl)-1,2,4-oxadiazole-5-carboxamide], for which, at BTK, the DC50 turned out to be 4.6 nM. In addition, the IC50 with HEK-293 cells is greater than 10000 nM.
Take `Cc1cc(-c2ncnc3[nH]c(-c4ccc(N5CCN(CC6CCN(c7ccc(N8CCC(=O)NC8=O)cc7)CC6)CC5)cc4)cc23)c(F)cc1[C@@H](C)NC(=O)c1noc(C(C)(C)C)n1` [Example 107, (R)-5-(tert-butyl)-N-(1-(4-(6-(4-(4-((1-(4-(2,4-dioxotetrahydropyrimidin-1(2H)-yl)phenyl)piperidin-4-yl)methyl)piperazin-1-yl)phenyl)-7H-pyrrolo[2,3-d]pyrimidin-4-yl)-5-fluoro-2-methylphenyl)ethyl)-1 2,4-oxadiazole-3-carboxamide]: half-maximal degradation at BTK (DC50) was put at 1.7 nM. The molecule further came in with an IC50 in the experiment on HEK-293 cells greater than 10000 nM.
On the same counts, the results for `C[C@@H](NC(=O)c1noc(C(C)(C)C)n1)c1ccc(-c2ncnc3[nH]c(-c4ccc(N5CCN(CC6CCN(c7ccc(N8CCC(=O)NC8=O)cc7)CC6)CC5)cn4)cc23)cc1F` [Example 108, (R)-5-(tert-butyl)-N-(1-(4-(6-(5-(4-((1-(4-(2,4-dioxotetrahydropyrimidin-1(2H)-yl)phenyl)piperidin-4-yl)methyl)piperazin-1-yl)pyridin-2-yl)-7H-pyrrolo[2,3-d]pyrimidin-4-yl)-2-fluorophenyl)ethyl)-1,2,4-oxadiazole-3-carboxamide] are 0.35 nM and greater than 10000 nM.
On the same counts, the results for `CC(C)(C)c1noc(C(=O)NCc2ccc(-c3ncnc4[nH]c(-c5ccc(N6CCN(CC7CCN(c8ccc(N9CCC(=O)NC9=O)cc8)CC7)CC6)cc5)cc34)cc2CO)n1` [Example 109, 3-(tert-butyl)-N-(4-(6-(4-(4-((1-(4-(2,4-dioxotetrahydropyrimidin-1(2H)-yl)phenyl)piperidin-4-yl)methyl)piperazin-1-yl)phenyl)-7H-pyrrolo[2,3-d]pyrimidin-4-yl)-2-(hydroxymethyl)benzyl)-1,2,4-oxadiazole-5-carboxamide] are 0.72 nM and greater than 10000 nM.
In turn, `Cc1cc(-c2ncnc3[nH]c(-c4ccc(N5CCN(CC6CCN(c7ccc(N8CCC(=O)N(C)C8=O)cc7)CC6)CC5)cn4)cc23)ccc1[C@@H](C)NC(=O)c1nc(C(C)(C)C)no1` [Example 110, (R)-3-(tert-butyl)-N-(1-(2-methyl-4-(6-(5-(4-((1-(4-(3-methyl-2,4-dioxotetrahydropyrimidin-1(2H)-yl)phenyl)piperidin-4-yl)methyl)piperazin-1-yl)pyridin-2-yl)-7H-pyrrolo[2,3-d]pyrimidin-4-yl)phenyl)ethyl)-1,2,4-oxadiazole-5-carboxamide] gave a DC50 at BTK greater than 2000 nM. For the same molecule, in the experiment on HEK-293 cells, the IC50 is greater than 10000 nM.
